Assays:
in vitro [1] = conditions: human
Description: (§1) As soon as cells reached confluency, cultivation was switched from submerged to airlift and 1% Human Keratinocytes Growth Supplements (HKGS, Gibco, Thermofisher, Vienna, Austria, S0015) was added to the cultivation media on the basolateral compartment. Media were changed every 2–3 days until the day of experiment on day 29. Cells from passage 14–36 were used for experiments. Transepithelial electric resistance (TEER) was measured on day of experiment, as described in detail previously.
(§2) Solutions were diluted to 10 µM (carboxyfluorescein) or 100 µM in DMEM on day of experiments.
(§3) First, TEER was measured in cultivation media on the day of experiment. Afterwards, cells and blanks were washed twice with DMEM on the apical (300 µL) and basolateral (900 µL) compartments and selected cells and blanks were treated with DMEM with or without 100 µM probenecid or verapamil on the apical and basolateral side at 37 °C for 30 min. […] To cells which were pre-incubated with probenecid or verapamil, 100 µM probenecid or verapamil was applied apically as well. DMSO content was adapted for cells with no inhibitors, and DMSO and dd-H2O content was adjusted in the basolateral compartment as well in order to apply the same vehicle concentrations on the apical and basolateral compartment. […] Subsequently, duplicates of apical sample were collected, and samples were frozen at −80 °C until further analysis with High-Performance Liquid Chromatography (HPLC).
(§4) Peaks were quantified using the software Chromeleon Version 7.2.6, and corresponding mili absorbance unit × time [mAU × min] values were used for data analysis.
(§5) Mean values of relative fluorescence unit (RFU) or detected area [mAU × min] were used for calculation. For the first timepoint, the clearance [µL] for the detected area was calculated as shown in the formula below (1a), with Abasot1 as the measured area [mAU × min] at the first time point of the basolateral sample, Vbaso as the basolateral volume [µL] and Astock as the area measured for the applied stock solution. […] Clearance [µL] for carboxyfluorescein was calculated with the same formulas using RFU. (1a) Clearance=Abasot1×Vbaso/AStock (1b) Clearancetn=Abasotn×Vbaso/AStock−∑(Abasotn−1 ×3− Abasot1 ×3)
(§6) Cleared volume [µL] was calculated by plotting the sum of clearance at all time points over time [min]. The resulting slope PS [µL/min] was calculated inversely. For calculation of the PScell, the inverse PS blanks were subtracted, as shown below in Formula (2). (2) 1/PScell=1/PSall−1/PSblank
(§7) The final permeability coefficient is calculated by dividing the inverse PScell by the area of the ThinCerts (0.336 cm^2) and multiplying by a conversion factor to give the permeability coefficient as µm/min.

[2] = tested on: oral mucosa epithelium in vitro model based on human cell line TR146; test: Transport study across oral mucosa Transwell model, apical to basolateral, 240 min; conditions: for permeability coefficient: mean ± SEM
Description: as §1, §2, §3, §4, §5, §6, §7

[3] = Transport study across blank inserts without cells; conditions: Ibuprofen study, mean ± SD
Description: as §3, §5, §6

TR146 cell layers = test: TEER after 48 h inflammation study; assay type: cell-based, human; conditions: 48 h treatment; ibuprofen 100 µM; cytokines 100 ng/mL each
[4] = tested on: COX-1 and COX-2 protein in TR146 cells; test: Western blot for COX-1 and COX-2 after inflammation study; assay type: cell-based, human; conditions: 48 h treatment
PC3 cells = conditions: 1500 µM for 24 h ref 60; cited from earlier work
in vitro [5] = conditions: human, not told, permeability coefficient, without probenecid
[6] = CXlogD at pH 7.4 ref https://ebi.ac.uk (02.04.2024); cited from earlier work
[7] = Ibuprofen study, Probenecid, mean ± SD
[8] = Ibuprofen study, Verapamil, mean ± SD
[9] = Ibuprofen study, w/o Inhibitor, mean ± SD

In the case of CC(C)Cc1ccc(C(C)C(=O)O)cc1 (stereo not drawn) [ibuprofen], the Papp A→B at 240 min (in vitro [1]; PC (permeability of cell)) was 13.1 ×10⁻⁶ cm/s, the Papp A→B at 240 min (in vitro [1]; PE (permeability of cell + blank)) was 5.45 ×10⁻⁶ cm/s and the “PS all (cell + blank)” value [2, 7] was 0.12 ± 0.03 µL/min. For the same compound, the PS cell [2, 7] was 0.26 ± 0.11 µL/min, the “PS all (cell + blank)” value [2, 8] was 0.11 ± 0.01 µL/min and the PS cell [2, 8] was 0.24 ± 0.04 µL/min. The “PE (permeability of cell + blank)” value [2, 9] was 2.94 ± 0.3 µm/min, the “PS all (cell + blank)” value [2, 9] was 0.1 ± 0.01 µL/min and the PS cell [2, 9] was 0.19 ± 0.05 µL/min. The “Permeability coefficient without inflammation and inhibitor” value ([2]; Table S3, mean ± SD) was 5.77 ± 1.48 µm/min, the “PE (permeability of cell + blank)” value ([2]; human, 240 min) was 3.47 ± 0.76 µm/min and the “increase of permeability coefficient with probenecid compared to no inhibitor” value ([2]; human, 240 min, 100 µM) was 1.36 fold. The “increase of permeability coefficient with verapamil compared to no inhibitor” value ([2]; human, 240 min, 100 µM) was 1.23 fold, the “cumulated concentration of NSAID in the basolateral compartment” value ([2]; human, 4 h, 100 µM) was 0.067 ± 0.0078 nmol/mm^2 and the permeability coefficient ([2]; with 100 µM probenecid) was 7.87 ± 1.32 µm/min. It also gave a permeability coefficient ([2]; with 100 µM verapamil) of 7.13 ± 0.51 µm/min, a permeability coefficient ([2]; without inhibitor, 100 µM apical (CF 10 µM)) of 5.77 ± 0.60 µm/min and a PS blank ([3]; Probenecid) of 0.22 ± 0.02 µL/min. For the same compound, the PS blank ([3]; Verapamil) was 0.21 ± 0.02 µL/min, the PS blank ([3]; w/o Inhibitor) was 0.21 ± 0.03 µL/min and the “TEER values after 48 h” value (TR146 cell layers) was 69.65 ± 9.10 Ω × cm^2. For the same compound, the COX-2 protein expression [4] was “no up-regulation of COX-2”, the COX-2 expression (PC3 cells) was “upregulation of COX-2” and the Papp A→B at 4 h (in vitro [5]; cell layers pre-treated with cytokines 48 h, 4 h transport) was 33.4 ×10⁻⁶ cm/s. The Papp A→B at 4 h (in vitro [5]; cell layers pre-treated with cytokines plus ibuprofen 48 h, 4 h transport) was 35.1 ×10⁻⁶ cm/s, the Papp A→B at 4 h (in vitro [5]; control cell layers, 4 h transport after 48 h) was 24 ×10⁻⁶ cm/s and the XlogD [6] was 1.34.

Source: article PMC11054638, “Transport of Non-Steroidal Anti-Inflammatory Drugs across an Oral Mucosa Epithelium In Vitro Model” (Pharmaceutics, 2024)
